One data set deals with Human PKC delta (Homo sapiens, UniProt Q05655). Nature of the data set: Inhibition of PKC isoforms, in vitro assay. It is filed as biochemical. The text has this:
The methods for these determinations have been described (Grant, et al. 2010, Eur J Pharmacol. 627:16-25).

Data set [1] relates to HBL1 cells. Put plainly: IL-6 assay (ELISA of supernatant). In kind it is cell-based. The following applies: CD79 mutant, 48 hours, data not shown. A general note: An ELISA detects its analyte on a solid surface through an enzyme-linked reagent.
The next data set concerns circulating lymphocytes. Put plainly: Peripheral lymphocyte levels, multiple ascending dose study. The following applies: healthy humans, 50, 100, 150, 200 mg BID, 14 days. It is filed as in vivo, human.
Data set [2] deals with HBL1 cells. Put plainly: Cell proliferation and survival assay (MTT). It is filed as cell-based. The conditions noted are these: 96 hours, data not shown.
The test system of data set [3] is TMD8 cells. Put plainly: Cell proliferation and survival assay (MTT). It is filed as cell-based. The following applies: for Inhibition of cell proliferation and survival: TMD8 cells, MTT, 96 hours. The procedure: (§1) TMD8 cells were grown in MEM media supplemented with 10% fetal calf serum (FCS), non-essential vitamin mix, and penicillin-streptomycin antibiotics (pen-strep). HBL1 cells were grown in RPMI-1640 media supplemented with 10% FCS and pen-strep. OCI-Ly3 cells were grown in DMEM media with 15% FCS, non-essential vitamin mix, pen-strep, and 25 mM HEPES buffer. Cells were maintained in suspension culture, fed twice weekly, and split 1:3 approximately every two weeks (TMD8, OCI-Ly3) or weekly (HBL1). Cells were cultured and maintained as described above, with cells always fed on the day prior to assay. Proliferation and survival of cells was quantified using an MTT assay kit according to manufacturer's instructions (Cell Proliferation Kit 1, Roche Diagnostics, Cat. No. 11 465 007 001). Experiments were performed in the same media used by each cell type for growth and maintenance. Cells (5×10^4) were plated in 96 well plates and allowed to grow for 96 hours in the presence of inhibitors. After the exposure period was completed, MTT reagent was added for 3-4 hours. The MTT solubilization reagent was then added to stop the reaction and cells were incubated overnight at 37° C. The plate read the next day according to the kit instructions.

In data set [4] the test system is OCI-Ly3 cells. Put plainly: Cell proliferation and survival assay (MTT). In kind it is cell-based. The conditions noted are these: 96 hours. The procedure: as §1
Data set [5] concerns TMD8 cells. Nature of the data set: Mouse xenograph model of DLBCL. In kind it is in vivo, SCID mice. How it is done: To test the efficacy of Compound A in vivo, TMD8 cells were grown and subcutaneously injected into SCID mice. Large scale suspension culture of TMD8 cells was performed in T250 flasks, where cells were expanded weekly. Animals (n=24) were inoculated with 10×10^6 cells (10×10^6 cells in 100 μL volume of 50% Matrigel®) subcutaneously in the animal's right flank.

The test system of data set [6] is TMD8 cells. Put plainly: IL-6 assay (ELISA of supernatant). In kind it is cell-based. The conditions noted are these: for Inhibition of IL-6 production: TMD8 cells, CD79 mutant, 48 hours. The procedure: (§2) TMD8 cells were grown in MEM media supplemented with 10% fetal calf serum (FCS), non-essential vitamin mix, and penicillin-streptomycin antibiotics (pen-strep). HBL1 cells were grown in RPMI-1640 media supplemented with 10% FCS and pen-strep. OCI-Ly3 cells were grown in DMEM media with 15% FCS, non-essential vitamin mix, pen-strep, and 25 mM HEPES buffer. Cells were maintained in suspension culture, fed twice weekly, and split 1:3 approximately every two weeks (TMD8, OCI-Ly3) or weekly (HBL1).
(§3) Cells were harvested via centrifugation and resuspended twice to rinse the media of any IL-6. Cells were then plated in 96 well plates at 5×10^5 cells per well and exposed to increasing concentrations of Compound A, sotrastaurin, or media containing 0.1% DMSO (negative control). For each cell type, experiments were performed in the media used for growth and maintenance. Cells were allowed to grow for 48 hours after plating in the presence of inhibitors. Following compound exposure, cells were pelleted in the 96 well plate, supernatant was removed, and the concentration of IL-6 in the supernatant was determined using R&D Systems Haman IL-6 Quantikine® ELISA Kit (D6050) according to manufacturer's instructions.

Data set [7] deals with OCI-Ly3 cells. Nature of the data set: IL-6 assay (ELISA of supernatant). In kind it is cell-based. The conditions noted are these: OCI-Ly3 cells lacking activating CD79 mutations, 48 hours. The procedure:
as §2, §3

The mark [8] stands for this setting: 120 mg/kg BID, SCID mice with TMD8 tumors.

SMILES strings stand for the structures.

Sequence of Human PKC delta (Q05655 whole entry, canonical isoform): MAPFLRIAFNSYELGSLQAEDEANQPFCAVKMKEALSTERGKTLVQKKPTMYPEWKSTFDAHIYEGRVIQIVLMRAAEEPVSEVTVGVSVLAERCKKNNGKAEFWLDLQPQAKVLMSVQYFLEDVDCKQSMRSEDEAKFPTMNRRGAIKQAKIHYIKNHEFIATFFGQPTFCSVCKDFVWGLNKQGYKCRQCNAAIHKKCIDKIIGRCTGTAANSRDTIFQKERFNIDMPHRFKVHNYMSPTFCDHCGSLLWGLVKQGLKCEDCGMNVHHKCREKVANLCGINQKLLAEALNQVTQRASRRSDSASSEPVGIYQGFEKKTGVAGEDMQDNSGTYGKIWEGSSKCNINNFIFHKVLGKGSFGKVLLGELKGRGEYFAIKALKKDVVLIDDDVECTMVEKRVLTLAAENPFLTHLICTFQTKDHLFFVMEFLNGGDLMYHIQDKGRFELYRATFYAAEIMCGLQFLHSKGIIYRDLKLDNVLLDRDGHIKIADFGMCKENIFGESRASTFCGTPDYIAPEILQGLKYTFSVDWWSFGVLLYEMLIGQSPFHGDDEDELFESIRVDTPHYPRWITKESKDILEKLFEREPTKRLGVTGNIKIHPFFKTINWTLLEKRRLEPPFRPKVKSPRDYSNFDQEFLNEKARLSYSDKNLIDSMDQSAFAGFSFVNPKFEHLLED
Protocol for circulating lymphocytes: Normal, healthy human patients received various doses of Compound A for 14 days of dosing. The dose levels were as follows: cohort 1: 50 mg, BID; cohort 2: 100 mg, BID; cohort 3, 150 mg, BID; and cohort 4, 200 mg BID.

Regarding `Cc1ncc(F)c(Nc2n[nH]c3c2CN(C(=O)N2C[C@@H](C)N(CC4CCOCC4)C[C@@H]2C)C3(C)C)n1` [Compound A, 5-{[(2S,5R)-2,5-dimethyl-4-(tetrahydro-2H-pyran-4-ylmethyl)piperazin-1-yl]carbonyl}-N-(5-fluoro-2-methylpyrimidin-4-yl)-6,6-dimethyl-1,4,5,6-tetrahydropyrrolo[3,4-c]pyrazol-3-amine], the “Inhibition of PKC delta (in words)” value at Human PKC delta was “does not inhibit PKC delta to any appreciable degree”. Further, the “Inhibition of IL-6 production” value in the data set with HBL1 cells [1] was “dose-dependent inhibition”; with TMD8 cells [6], “dose-dependent inhibition”; with OCI-Ly3 cells [7], “not affected”. For the same molecule, in the data set on circulating lymphocytes, the “Number of circulating lymphocytes” value is reported as “dose dependent increase”. The “Inhibition of cell proliferation and survival” value with HBL1 cells [2] is given as “dose-dependent inhibition”; in the data set on TMD8 cells [3], “dose-dependent inhibition”; in the data set with OCI-Ly3 cells [4], “not affected by either compound except at the highest doses tested”. Moreover, the “Potency in cell proliferation assay compared to sotrastaurin” value in the data set with TMD8 cells [3] is “modestly more potent”. For the same molecule, the “Mean weight of vehicle treated group greater than Compound A treated animals” value in the data set with TMD8 cells [5] (120 mg/kg BID) was 1.8 g. Moreover, the “Body weight change from day 24-28” value in the data set with TMD8 cells [5] (setting [8]) is reported as “no increase in body weight”. The “Body weight, first 10 days of treatment” value with TMD8 cells [5] (setting [8]) is “steady, slow increase”. Besides, in the data set with TMD8 cells [5] (study days 20 to 28, 120 mg/kg BID), the “Tumor growth (in words)” value is given as “no appreciable amounts of tumor growth”. In the data set on TMD8 cells [6], the “Potency in IL-6 assay compared to sotrastaurin” value is reported as “slightly more potent”.

With `CN1CCN(c2nc(C3=C(c4c[nH]c5ccccc45)C(=O)NC3=O)c3ccccc3n2)CC1` [sotrastaurin, reference compound], the “Inhibition of cell proliferation and survival” value in the data set with TMD8 cells [3] was “dose dependent inhibition”; in the data set with OCI-Ly3 cells [4] it was “not affected by either compound except at the highest doses tested”. The “Inhibition of IL-6 production” value with TMD8 cells [6] is “dose dependent inhibition”; in the data set on OCI-Ly3 cells [7], “not affected”.
